Data published in patent US8895746B2 (University of Central Florida Research Foundation, Inc., priority 2009, dated 2014).
Several values for one entry are separate records, joined by “and”; a condition that tells them apart may be missing. Identical values can stand only once.

Assays:
[1] = tested on: Stat5:Stat5 complex; test: EMSA selectivity, nuclear extracts of EGF-stimulated NIH3T3/hEGFR, MGFe probe; type: biochemical, mouse; conditions: up to 300 μM
Experimental: Nuclear extract preparations and electrophoretic mobility shift assay (EMSA) were carried out as previously described (28,33). […] Except where indicated, nuclear extracts were pre-incubated with compound for 30 min at room temperature prior to incubation with the radiolabeled probe for 30 min at 30° C. before subjecting to EMSA analysis.

[2] = target: T1, Stat3 association with EGFR (Homo sapiens, UniProt P40763); test: Co-immunoprecipitation of EGFR immunecomplex from treated Panc-1 and MDA-MB-231 cells; type: cell-based
T1 construct: immunoprecipitated from whole-cell lysates prepared from treated and untreated cancer cells and blotted for Stat3; endogenous in cells; host or cells: Panc-1 and MDA-MB-231 cells
Experimental: Immunoprecipitation from whole-cell lysates and SDS/PAGE and Western blotting analysis were performed as previously described (33,38).
Cells were then subjected to immunostaining for EGFR (red) and Stat3 (green) and analyzed by confocal microscopy for EGF-induced colocalization of Stat3 and EGFR and for Stat3 nuclear translocation, as previously performed (17). In the resting NIH3T3/hEGFR fibroblasts, EGFR (red) is widely localized at the plasma membrane, while Stat3 (green) is localized at both the plasma membrane and in the cytoplasm, with a minimal colocalization with EGFR at the plasma membrane and no visible presence in the nucleus (stained blue for DAPI) (FIG. 4A upper panel).

[3] = tested on: NIH3T3/v-Src, MDA-MB-231 and Panc-1 cells; test: Viable cell numbers and growth (CyQuant, trypan blue exclusion), cells with aberrant Stat3; type: cell-based, mouse, human
[4] = tested on: NIH3T3, Stat3-null MEFs (Stat3−/−), HPDEC, TE71; test: Viability and growth (CyQuant, trypan blue exclusion), cells without aberrant Stat3; type: cell-based, mouse, human; conditions: up to 200 μM
Description: Aberrant Stat3 promotes malignant cell proliferation, survival and malignant transformation (10, 20, 42). Given that S3I201.1066 disrupts Stat3 activation, we asked the question whether this agent is able to selectively decrease the viability and growth of malignant cells that harbor aberrant Stat3 activity.

[5] = tested on: NIH3T3/v-Ras; test: Colony survival assay; type: cell-based, mouse
Experimental: This was performed as previously reported (39). […] Colonies were stained with crystal violet for 4 h and counted under phase-contrast microscope.
Cultured single-cells were untreated or treated once with S3I-201.1066 and allowed to grow until large colonies were visible, which were stained and enumerated.

[6] = tested on: NIH3T3/v-Src, MDA-MB-231 and Panc-1 cells; test: Soft-agar colony formation assay; type: cell-based, mouse, human
Experimental: Colony formation assays were carried out in 6-well dishes, as described previously (16,37). Briefly, each well contained 1.5 ml of 1% agarose in Dulbeco's modified Eagle's medium as the bottom layer and 1.5 ml of 0.5% agarose in Dulbeco's modified Eagle's medium containing 4000 or 6000 NIH3T3/v-Src or NIH3T3/v-Ras fibroblasts, respectively, as the top layer. Treatment with S3I201.1066 was initiated 1 day after seeding cells by adding 80 μl of medium with or without S3I20.1.1066, and repeating every 3 days, until large colonies were evident. Colonies were quantified by staining with 20 μl of 1 mg/ml crystal violet, incubating at 37° C. overnight, and counting the next day under phase contrast microscope.

[7] = target: Stat3 (Mus musculus, UniProt P42227); test: Fluorescence Polarization assay, Stat3 binding to 5-carboxyfluorescein-GpYLPQTV-NH2 probe; design: Coding regions for the murine Stat3 protein; made in house; host or cells: E. coli BL21(DE3); species or system murine; conditions: IC50, disruption of Stat3 binding to pTyr peptide probe, 150 nM Stat3, 10 nM probe
Experimental: Coding regions for the murine Stat3 protein and Stat3 SH2 domain were amplified by PCR and cloned into vectors pET-44 Ek/LIC (Novagen) and pET SUMO (Invitrogen), respectively.
Fluorescence Polarization (FP) Assay was conducted as previously reported (23), with some modification using the phospho-peptide, 5-carboxyfluorescein-GpYLPQTV-NH2 (phosphorylated SEQ ID NO:7) (where pY represents phospho-Tyr) as probe and Stat3. The FP assay was used to evaluate the binding of agents to Stat3 and to determine the ability to disrupt the Stat3:pTyr peptide interaction. A fixed concentration of the fluorescently-labeled peptide probe (10 nM) was incubated with increasing concentration of the Stat3 protein for 30 min at room temperature in the buffer, 50 mM NaCI, 10 mM HEPES, 1 mM EDTA, 0.1% Nonidet P-40, and the fluorescent polarization measurements were determined using the POLARstar Omega (BMG LABTECH, Durham, N.C.), with the set gain adjustment at 35 mP. The Z′ value was derived per the equation Z′=1−(3 SDbound+3 SD free)/(mPbound−mPfree), where SD is the standard deviation and mP is the average of fluorescence polarization. In the bound state, 10 nM 5-carboxyfluorescein-GpYLPQTV-NH2 (phosphorylated SEQ ID NO:7) was incubated with 150 nM purified Stat3 protein, while the free (unbound) state was the same mixture, but incubated with an additional 10 IJM unlabeled Ac-GpYLPQTV-NH2 (phosphorylated SEQ ID NO:7). For evaluating agents, Stat3 protein (150 nM) was incubated with serial concentrations of S31-201.1066 at 30° C. for 60 min in the indicated assay buffer conditions. Prior to the addition of the fluorescence probe, the protein:S31-201.1066 mixtures were allowed to equilibrate at room temperature for 15 min. Probe was added at a final concentration of 10 nM and incubated for 30 min at room temperature following which the FP measurements were taken using the POLARstar Omega, with the set gain adjustment at 35 mP.
The FP assay was used to further test the computational modeling prediction of the ability of S31-201.1066 to disrupt Stat3 interaction with its cognate pTyr peptide.

[8] = increasing concentrations, 24-144 h

T1 sequence (P40763 2-770 limits assumed): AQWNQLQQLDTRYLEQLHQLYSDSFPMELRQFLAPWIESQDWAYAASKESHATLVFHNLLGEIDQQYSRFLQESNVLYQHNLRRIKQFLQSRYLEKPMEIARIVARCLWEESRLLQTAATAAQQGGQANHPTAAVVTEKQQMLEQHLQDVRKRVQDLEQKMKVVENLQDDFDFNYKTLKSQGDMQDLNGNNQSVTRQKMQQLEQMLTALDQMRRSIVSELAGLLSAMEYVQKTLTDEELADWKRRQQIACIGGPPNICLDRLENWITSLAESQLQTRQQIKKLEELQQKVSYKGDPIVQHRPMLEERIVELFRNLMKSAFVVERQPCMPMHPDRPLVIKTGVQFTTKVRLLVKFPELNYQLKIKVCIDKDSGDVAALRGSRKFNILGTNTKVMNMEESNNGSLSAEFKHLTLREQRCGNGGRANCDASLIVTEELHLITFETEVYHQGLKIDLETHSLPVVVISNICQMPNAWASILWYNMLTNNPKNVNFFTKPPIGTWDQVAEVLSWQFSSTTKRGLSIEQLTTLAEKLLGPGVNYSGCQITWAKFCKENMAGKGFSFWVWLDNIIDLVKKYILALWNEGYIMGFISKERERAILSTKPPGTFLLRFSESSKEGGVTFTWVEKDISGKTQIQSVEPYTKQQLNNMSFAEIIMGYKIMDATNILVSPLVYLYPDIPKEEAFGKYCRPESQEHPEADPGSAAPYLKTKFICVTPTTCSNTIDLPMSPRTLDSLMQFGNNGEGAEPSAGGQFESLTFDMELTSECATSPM
Chain of Stat3 (P42227 whole entry, the tested form may be a part): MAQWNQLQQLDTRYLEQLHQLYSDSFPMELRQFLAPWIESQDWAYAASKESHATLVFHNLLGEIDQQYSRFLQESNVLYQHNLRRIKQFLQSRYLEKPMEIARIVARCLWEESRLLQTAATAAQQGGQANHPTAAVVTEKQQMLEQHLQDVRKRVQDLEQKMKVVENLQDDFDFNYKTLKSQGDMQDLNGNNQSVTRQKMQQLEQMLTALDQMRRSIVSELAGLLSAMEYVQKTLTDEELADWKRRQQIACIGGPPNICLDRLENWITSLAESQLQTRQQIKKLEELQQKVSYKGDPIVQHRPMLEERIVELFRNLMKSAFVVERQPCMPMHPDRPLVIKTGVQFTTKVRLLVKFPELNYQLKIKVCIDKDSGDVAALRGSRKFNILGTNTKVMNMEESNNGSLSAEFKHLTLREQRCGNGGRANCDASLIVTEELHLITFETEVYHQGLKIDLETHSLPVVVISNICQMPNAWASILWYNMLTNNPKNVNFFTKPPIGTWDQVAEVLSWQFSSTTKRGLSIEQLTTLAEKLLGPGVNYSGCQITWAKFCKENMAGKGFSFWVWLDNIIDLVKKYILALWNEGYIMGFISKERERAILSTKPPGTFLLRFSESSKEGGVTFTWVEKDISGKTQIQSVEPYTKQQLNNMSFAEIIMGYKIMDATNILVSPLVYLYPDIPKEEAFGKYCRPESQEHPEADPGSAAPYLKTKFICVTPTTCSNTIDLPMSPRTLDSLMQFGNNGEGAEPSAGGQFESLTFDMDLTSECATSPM

## Cc1ccc(S(=O)(=O)N(C)CC(=O)N(Cc2ccc(C3CCCCC3)cc2)c2ccc(C(=O)O)c(O)c2)cc1 [S3I-201.1066]
[1]
  effect on Stat5:Stat5 complex with the MGFe probe: no effect
[2]
  Shc or Grb 2 levels associated with EGFR in the complex: without affecting
  level of Stat3 associated with EGFR in the immunecomplex: significantly diminished
  levels of activated and total Erk1/2 in whole-cell lysates: unaffected
[3]
  concentrations at which antitumor cell effects occurred: 30 to 50 µM
[3]; [8]
  growth (trypan blue exclusion): growth inhibited
  viable cell numbers: significantly reduced viable cell numbers
[4]
  viability and growth: not significantly altered
[5]
  colony numbers, colony survival: minimal effect
[6]
  growth in soft-agar suspension: significantly inhibited
[7]
  IC50: 45 µM and 23 µM and 20 µM
